Test results from US20260242822A1, “METHODS AND KITS FOR THE IMPROVED FERMENTATIVE PRODUCTION OF A RECOMBINANT VIRUS” (priority 2022, published 2026).

Legend:
HEK293 cells [1] = test: rAAV yield in 10 L bioreactor fermentation of HEK293 cells, rAAV8 capsid particle ELISA; format: cell-based, human; conditions: supernatant, vs negative control without inhibitor
Description: (§1) To test the effect of IFN inhibitor on the rAAV yield in large-scale bioreactor fermentation of HEK293 cells, 10 L bioreactors have been used. The results are shown in FIG. 3A (determination by capsid particlerAAV8 ELISA) and FIG. 3B (determination by ddPCR).

HEK293 cells (CL1) [2] = test: rAAV8 yield in suspension HEK293 (CL1) shaker flasks, vector genome ddPCR
suspension HEK293 (CL1) = test: Lentivirus production in suspension HEK293 (CL1) shake flasks, p24 ELISA; format: cell-based, human; conditions: vs untreated control (100%)
Experimental: Transient transfection of HEK293 to produce Lentivirus was performed with pALDI-Lenti system (Aldevron). […]. The transfection mix consisted of the four-plasmid system, DMEM media and PEI as transfection reagent. The ratio between the used plasmids was 1:1:1:1 and the plasmid DNA PEI ration was 1:3.
The ELISA quantifies structural HIV1 p24 capsid protein amount in cell culture and supernatant samples. It is a quantitative sandwich ELISA method. For titering lentiviral expression HIV1 p24 ELISA Kit ab218268 was used. To discriminate between viral p24 produced by lentivirus and associated p24 produced by HEK293 cells Cell Biolabs Quick Titer™ Kit including LV-Origine/TR30021/Lot #134641F and the Cell Biolabs Reference Standard #310809 was used. The virus pulldown technology ensures detection of lentiviral associated p24 only.
The suspension HEK293 (CL1) experiments with a four-plasmid lentiviral transfection were performed in shake flasks with the same conditions as shown in Table 2. The statistical mean of the control condition was evaluated as 100%.

Adherent HEK293 cells [3] = test: rAAV yield in adherent HEK293 cells in T75 flasks, capsid particle AAV8 ELISA; format: cell-based, human; conditions: supernatant, vs control condition
Experimental: (§2) Adherent HEK293 cell line (Agilent Technologies CAT #240073, Lot #0006218516) was cultivated in T75 flasks in a total volume of 23 mL with DMEM media containing 2% FCS. The cultivation of the cells was performed in an incubator at +37° C. and 5% CO2. 1 mM Ruxolitnib stock solution was prepared by dissolving the solid white powder in DMSO according to the manufacturer's instructions before use and stored at −20° C. During the last passage before transfection Ruxolitinib was added to the cell culture at defined concentrations. Every condition was tested in duplicates. At transfection day a confluence range of 60 to 80% was achieved.
(§3) The statistical mean of the control condition was calculated as 100%.

Adherent HEK293 cells [4] = test: rAAV yield in adherent HEK293 cells in T75 flasks, ddPCR; format: cell-based, human; conditions: supernatant, vs control condition (100%)
Experimental: as §2, §3

HEK293 cells [5] = test: rAAV yield in 10 L bioreactor fermentation of HEK293 cells, ddPCR; format: cell-based, human; conditions: supernatant
Description: as §1

HEK293 cells (CL1) [6] = test: rAAV8 yield in suspension HEK293 (CL1) shaker flasks, capsid particle AAV8 ELISA
Description: The commercially available enzyme-linked immunosorbent assay (ELISA; Progen AAV8 titration ELISA kit, cat. No. PRAAV8) uses a monoclonal antibody (ADK8) specific for a conformational epitope on assembled AAV8 capsids. This plate-immobilized antibody captures rAAV-8 particles from the specimen. Captured particles are then detected by the binding of biotinylated anti-AAV8 ADK8 since epitope targeted is repeatedly expressed on the assembled AAV8 capsid. Streptavidin peroxidase and a peroxidase substrate is then used for measuring bound anti-AAV8 and thus the concentration of AAV8 capsid. The color reaction was measured photometrically at 450 nm. The kit contains an rAAV2/8 particle preparation as calibration standard with a labelled rAAV8 particle concentration.

## N#CC[C@H](C1CCCC1)n1cc(-c2ncnc3[nH]ccc23)cn1 [Ruxolitinib, (3R)-3-cyclopentyl-3-[4-(7H-pyrrolo[2,3-d]pyrimidin-4-yl)pyrazol-1-yl]propanenitrile]
HEK293 cells [1]
  improvement of rAAV8 capsid particles by ELISA: about 1.5 fold
HEK293 cells (CL1) [2]; 5 μM ruxolitinib, cell suspension
  rAAV yield in the cell suspension: about 2×10^13 vg/L cell culture
HEK293 cells (CL1) [2]; 10 μM ruxolitinib, cell suspension
  rAAV yield in the cell suspension: about 2×10^13 vg/L cell culture
HEK293 cells (CL1) [2]; 10 μM ruxolitinib, cell suspension, vs negative control without inhibitor
  increase of the vector genome (vg) in the cell suspension: about 2 fold
HEK293 cells (CL1) [2]; 10 μM ruxolitinib, supernatant, vs negative control without inhibitor
  increase of the vector genome (vg) in the supernatant: about 2.5 fold
Suspension HEK293 (CL1); 5 μM inhibitor
  lentiviral cp titer increase (p24 ELISA): 40%
Suspension HEK293 (CL1); 10 μM inhibitor
  lentiviral cp titer increase (p24 ELISA): 81.5%
Adherent HEK293 cells [3]; 1 μM inhibitor
  capsid particle yield increase (ELISA): 49%
Adherent HEK293 cells [3]; 5 μM inhibitor
  capsid particle yield increase (ELISA): 66.5%
Adherent HEK293 cells [3]; 10 μM inhibitor
  capsid particle titer increase (ELISA): 62%
Adherent HEK293 cells [4]; 1 μM inhibitor
  vg yield increase (ddPCR): 48%
Adherent HEK293 cells [4]; 5 μM inhibitor
  vg yield increase (ddPCR): 38.5%
Adherent HEK293 cells [4]; 10 μM inhibitor
  vg yield increase (ddPCR): 31%
HEK293 cells [5]
  improvement of rAAV yield by ddPCR: approximately 1.3 fold
HEK293 cells (CL1) [6]; concentrations higher than 10 μM
  effect on rAAV yield at higher concentrations: reduction of the effect
HEK293 cells (CL1) [6]; optimal concentration 5 μM, vs yield in absence of inhibitor
  increase of rAAV yield as determined in cell suspension: about 3 fold
